From US11021444B2, “Antiviral compounds” (priority 2013, dated 2021)
Like-named read-outs stand apart in the source and are kept apart here.

Columns and labels:
[1] = tested on: Respiratory Syncytial Virus (RSV) long strain; test: microbe, parasite or virus in culture; format: cell-based; conditions: human respiratory syncytial virus, Tables A and B list compounds by EC50 band
Protocol: (§1) CPE reduction assays are performed as described by Sidwell and Huffman et al., Appl. Microbiol. (1971) 22(5):797-801 with slight modifications. HEp-2 cells (ATCC #, CCL-23) are seeded at a density of 1,500 cells/30 μl/well into the 384-well cell plate(s) (Corning #3701) one day prior to the assay. Compounds are added into 384-well cell plates by Labcyte POD 810 Plate Assembler system. Each of the test compounds is provided to duplicate wells of a 384-well cell plate at final concentrations starting from 100 μM or 1 μM using 1/3 stepwise dilutions for 9 points. Quick-thaw Respiratory Syncytial Virus (RSV) long strain (ATCC #VR-26) stock in a 37° C. water bath. Place on ice until ready to use. Viruses are diluted to the concentration of 100 TCID50/30 μL with medium and 30 μl diluted RSV are added into related wells of 384-well cell plates. For each plate, sixteen wells are set aside as uninfected, untreated cell controls (CC), and nine wells per test plate receive virus only as a control for virus replication (VC). The final DMSO concentration of all wells is 1%. Place the plates at 37° C., 5% CO2 for 5 days.
After 5 days incubation, observe the CPE of cells in all wells. […] Six μl of cell counting kit-8 reagent (CCK-8, Dojindo Molecular Technologies Inc., CK04-20) are added to each well, which allows colorimetric assays to determine the number of viable cells through the dehydrogenase activity detection. After 3-4 hour incubation, the absorbance of each well is measured with a spectrophotometric plate reader at 450 nm wavelength, using a 630 nm filter as background according to manufacturer's instruction.

[2] = Cytotoxicity Determination (CCK-8, without addition of virus); format: cell-based; conditions: human, 50% cytotoxicity concentration (CC50)
Protocol: as §1
In order to determine the compound cytotoxicity, in parallel, each of the compounds is applied to duplicate wells in a 384-well cell plate at serial final concentrations starting from 100 μM using 1/2 stepwise dilutions for 7 points without addition of virus. Incubate the cells at 37° C., 5% CO2 for 5 days. Add 6 μL CCK-8 into each well and incubate in a CO2 incubator at 37° C. for 3-4 hours.

recombinant RSV complex = recombinant RSV complex (Human respiratory syncytial virus A, UniProt P28887); test: RSV Polymerase Inhibition Assay; format: biochemical
Protocol: Standard RSV polymerase assays were conducted in the presence of 10 nM recombinant RSV complex in a reaction buffer containing Tris-HCl pH7.5, 6 mM MgCl2, and other additives and substrates including RNA oligonucleotides and radionucleotides. Standard reactions were incubated in 96-well plate format for 2 h at 30° C., in the presence of increasing concentration of inhibitor. The reaction was stopped with 90 μL of 0.1M EDTA, and the reaction product was transferred to a “reading” 96-well plate. After washing of the plate, radiolabeled RNA products were detected according to standard procedures with a Trilux Topcount scintillation counter.

[3] = HEp-2, 120 h, read-out: 50% effective concentration (EC50), HEp-2 cells infected with RSV long strain, 5 days, CCK-8 readout

Chain of recombinant RSV complex (P28887 whole entry): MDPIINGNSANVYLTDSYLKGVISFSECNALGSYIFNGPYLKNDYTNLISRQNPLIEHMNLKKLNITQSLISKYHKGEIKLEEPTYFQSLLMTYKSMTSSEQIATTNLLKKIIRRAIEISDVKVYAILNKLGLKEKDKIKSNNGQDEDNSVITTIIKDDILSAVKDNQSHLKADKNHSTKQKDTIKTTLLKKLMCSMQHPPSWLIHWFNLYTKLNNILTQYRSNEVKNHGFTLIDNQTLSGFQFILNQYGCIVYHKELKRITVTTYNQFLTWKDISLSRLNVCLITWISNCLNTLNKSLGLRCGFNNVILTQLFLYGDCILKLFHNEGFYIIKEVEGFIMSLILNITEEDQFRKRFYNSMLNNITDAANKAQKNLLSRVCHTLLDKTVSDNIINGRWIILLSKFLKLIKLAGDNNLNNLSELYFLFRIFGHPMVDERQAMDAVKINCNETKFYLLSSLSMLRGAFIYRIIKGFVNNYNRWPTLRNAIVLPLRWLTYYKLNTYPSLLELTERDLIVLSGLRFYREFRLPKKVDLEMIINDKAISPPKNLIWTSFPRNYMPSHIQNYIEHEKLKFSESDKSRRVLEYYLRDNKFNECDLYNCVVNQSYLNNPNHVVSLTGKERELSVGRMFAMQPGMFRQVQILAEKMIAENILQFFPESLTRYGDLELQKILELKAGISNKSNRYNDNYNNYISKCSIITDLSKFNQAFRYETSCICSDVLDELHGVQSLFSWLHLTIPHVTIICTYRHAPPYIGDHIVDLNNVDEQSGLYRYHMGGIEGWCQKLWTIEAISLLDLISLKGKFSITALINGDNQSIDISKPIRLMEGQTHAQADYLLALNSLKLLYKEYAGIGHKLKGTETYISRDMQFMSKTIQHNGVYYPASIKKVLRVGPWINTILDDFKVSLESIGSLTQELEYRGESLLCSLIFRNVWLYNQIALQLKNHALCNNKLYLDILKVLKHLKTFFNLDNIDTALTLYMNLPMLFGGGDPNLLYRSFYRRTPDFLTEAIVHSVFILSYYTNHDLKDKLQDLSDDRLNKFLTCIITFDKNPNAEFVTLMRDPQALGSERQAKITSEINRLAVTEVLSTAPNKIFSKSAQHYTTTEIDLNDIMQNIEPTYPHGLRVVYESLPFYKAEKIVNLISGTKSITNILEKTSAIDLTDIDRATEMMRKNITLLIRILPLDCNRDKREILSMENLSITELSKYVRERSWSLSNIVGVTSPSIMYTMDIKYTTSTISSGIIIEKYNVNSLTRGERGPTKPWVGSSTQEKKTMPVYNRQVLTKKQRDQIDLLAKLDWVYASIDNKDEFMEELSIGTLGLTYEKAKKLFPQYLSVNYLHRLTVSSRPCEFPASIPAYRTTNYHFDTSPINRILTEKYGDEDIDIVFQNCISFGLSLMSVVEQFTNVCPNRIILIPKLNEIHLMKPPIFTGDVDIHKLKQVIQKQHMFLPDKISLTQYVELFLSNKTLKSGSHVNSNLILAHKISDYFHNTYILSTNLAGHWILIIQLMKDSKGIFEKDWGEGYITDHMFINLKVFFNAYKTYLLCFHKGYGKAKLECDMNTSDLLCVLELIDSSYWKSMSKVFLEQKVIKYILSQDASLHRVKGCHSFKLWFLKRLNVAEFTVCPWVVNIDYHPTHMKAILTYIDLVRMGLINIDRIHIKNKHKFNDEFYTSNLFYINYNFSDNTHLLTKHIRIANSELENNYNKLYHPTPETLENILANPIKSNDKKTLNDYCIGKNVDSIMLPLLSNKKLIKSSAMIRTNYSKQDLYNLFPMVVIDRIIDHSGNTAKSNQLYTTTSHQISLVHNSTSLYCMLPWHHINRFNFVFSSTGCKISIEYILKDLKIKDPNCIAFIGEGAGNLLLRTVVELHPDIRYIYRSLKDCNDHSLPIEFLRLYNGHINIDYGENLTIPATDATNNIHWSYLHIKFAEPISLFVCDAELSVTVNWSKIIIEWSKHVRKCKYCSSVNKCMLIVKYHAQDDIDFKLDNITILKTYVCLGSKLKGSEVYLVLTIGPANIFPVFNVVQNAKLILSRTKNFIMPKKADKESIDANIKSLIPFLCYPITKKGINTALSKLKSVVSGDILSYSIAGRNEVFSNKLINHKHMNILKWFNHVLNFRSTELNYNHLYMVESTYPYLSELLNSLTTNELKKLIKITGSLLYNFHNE
Chain of recombinant RSV complex (P03421 whole entry, further chain): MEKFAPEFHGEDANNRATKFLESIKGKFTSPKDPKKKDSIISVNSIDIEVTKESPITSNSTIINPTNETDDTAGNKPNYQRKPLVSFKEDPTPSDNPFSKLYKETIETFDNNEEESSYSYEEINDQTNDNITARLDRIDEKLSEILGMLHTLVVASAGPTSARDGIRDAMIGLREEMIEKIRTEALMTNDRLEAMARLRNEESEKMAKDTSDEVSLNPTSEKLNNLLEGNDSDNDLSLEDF

Row | SMILES | EC50 ([1]; 120 h, read-out: 50% effective concentration (EC50), HEp-2 cells infected with RSV long strain, 5 days, CCK-8 readout) [µM] | CC50 at 5 days [2] [µM] | IC50 (recombinant RSV complex) [µM] | EC50 [1, 3] [µM]
1 | COc1cc(C(=O)NCC(O)(c2cc3c(c(-c4ccc(F)c(Cl)c4)n2)OCC3(C)C)C(F)(F)F)ccc1OCC(N)=O (stereo not drawn) [Compound 210] | < 1 | 10 to 100 | < 1 | –
2 | COc1cc(C(=O)NCC(O)(c2cc3c(c(-c4ccc(F)c(Cl)c4)n2)OCC3(C)C)C(F)(F)F)cc2ccc(C)nc12 (stereo not drawn) [Compound 213] | – | > 100 | < 1 | < 1
3 | COc1cc(C(=O)NCC(O)(c2cc3c(c(-c4ccc(F)c(Cl)c4)n2)OCC3(C)C)C(F)(F)F)cc2ccc(C(N)=O)nc12 (stereo not drawn) [Compound 214] | – | 10 to 100 | < 1 | < 1
4 | COc1cc(C(=O)NCC(O)(c2cc3c(c(-c4ccc(F)c(Cl)c4)n2)OCC3(C)C)C(F)(F)F)cc2ccc(C#N)nc12 (stereo not drawn) [Compound 215] | – | 10 to 100 | < 1 | 1 to 50
5 | COc1cc(C(=O)NCC(O)(c2cc3c(c(-c4ccc(F)c(Cl)c4)n2)OCC3(C)C)C(F)(F)F)ccc1CN1CCNC1=O (stereo not drawn) [Compound 216] | – | 10 to 100 | < 10 | 1 to 50
6 | COc1cc(C(=O)NCC(=O)c2cc3c(c(-c4ccc(F)c(Cl)c4)n2)OCC3(C)C)ccc1OC1CCNC1=O (stereo not drawn) [Compound 217] | – | 10 to 100 | < 1 | < 1
7 | COc1cc(C(=O)NCC(O)(CO)c2cc3c(c(-c4ccc(F)c(Cl)c4)n2)OCC3(C)C)ccc1OC1CCNC1=O (stereo not drawn) [Compound 219] | – | 10 to 100 | < 1 | < 1
8 | COc1cc(C(=O)NCC(O)(CO)c2cc3c(c(-c4ccc(F)c(Cl)c4)n2)OCC3(C)C)cc2cccnc12 (stereo not drawn) [Compound 221] | – | 10 to 100 | < 1 | < 1
9 | COc1cc(C(=O)NCC(=O)c2cc3c(c(-c4ccc(F)c(Cl)c4)n2)OCC3(C)C)ccc1OC1CCN(C)C1=O (stereo not drawn) [Compound 222] | – | 10 to 100 | < 1 | < 1
10 | COc1cc(C(=O)NCC(C)(O)c2cc3c(c(-c4ccc(F)c(Cl)c4)n2)OCC3(C)C)ccc1OCCF (stereo not drawn) [Compound 227] | – | 10 to 100 | < 1 | < 1
11 | COc1cc(C(=O)NCC(O)(c2ccc(OC)c(-c3ccc(F)c(Cl)c3)n2)C(F)(F)F)ccc1OCC(F)(F)F (stereo not drawn) [Compound 233] | – | > 100 | < 1 | 1 to 50
12 | COc1cc(C(=O)NCC(O)(c2ccc(OC)c(-c3ccc(F)c(Cl)c3)n2)C(F)(F)F)ccc1OCC(C)(F)F (stereo not drawn) [Compound 234] | – | > 100 | < 1 | < 1
13 | COc1cc(C(=O)NCC(O)(c2ccc(OC)c(-c3ccc(F)c(Cl)c3)n2)C(F)(F)F)ccc1OC1CCOC1 (stereo not drawn) [Compound 235] | – | 10 to 100 | < 1 | < 1
14 | COc1cc(C(=O)NCC(O)(c2ccc(OC)c(-c3ccc(F)c(Cl)c3)n2)C(F)(F)F)ccc1OC1CCCC1 (stereo not drawn) [Compound 236] | – | > 100 | < 1 | 1 to 50
15 | COc1ccc(C(O)(CNC(=O)c2ccc(OC3CC3)c(Cl)c2)C(F)(F)F)nc1-c1ccc(F)c(Cl)c1 (stereo not drawn) [Compound 251] | – | 10 to 100 | < 1 | 1 to 50
16 | COc1ccc(C(O)(CNC(=O)c2ccc3ncccc3c2)C(F)(F)F)nc1-c1ccc(F)c(Cl)c1 (stereo not drawn) [Compound 252] | – | 10 to 100 | < 1 | 1 to 50
17 | COc1ccc(C(O)(CNC(=O)c2ccc3[nH]cnc3c2)C(F)(F)F)nc1-c1ccc(F)c(Cl)c1 (stereo not drawn) [Compound 253] | – | 10 to 100 | < 10 | 1 to 50
18 | COc1ccc(C(O)(CNC(=O)c2ccc3ncsc3c2)C(F)(F)F)nc1-c1ccc(F)c(Cl)c1 (stereo not drawn) [Compound 254] | – | 10 to 100 | < 1 | 1 to 50
19 | COc1cc(C(=O)NCC(O)(c2ccc(OC)c(-c3ccc(F)c(Cl)c3)n2)C(F)(F)F)ccc1OC1CCCC1=O (stereo not drawn) [Compound 257] | – | 10 to 100 | < 1 | < 1
